In PubChem BioAssay (NCI):
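Step 1: Grow cells in 96-well plates. Step 2: Expose to compound for 48 hours at 5 concentrations. Step 3: Interpolate endpoints linearly; if unreached, use highest concentration. Definition used: TGI = concentration required for complete inhibition of growth.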

Experiments:
Assay in all cases: DTP human tumour cell line panel, 48 h
TK-10 renal = tested on: TK-10 renal
PC-3 prostate = tested on: PC-3 prostate
SF-539 CNS = tested on: SF-539 CNS
DU-145 prostate = tested on: DU-145 prostate
RPMI-8226 leukemia = tested on: RPMI-8226 leukemia
OVCAR-8 ovarian = tested on: OVCAR-8 ovarian
NCI-H522 lung = tested on: NCI-H522 lung
A549 NSCLC = tested on: A549 NSCLC
UACC-257 melanoma = tested on: UACC-257 melanoma
UACC-62 melanoma = tested on: UACC-62 melanoma
HCT-116 colon = tested on: HCT-116 colon
COLO 205 colon = tested on: COLO 205 colon
LOX IMVI melanoma = tested on: LOX IMVI melanoma
SK-MEL-28 melanoma = tested on: SK-MEL-28 melanoma
NCI/ADR-RES ovarian = tested on: NCI/ADR-RES ovarian
HCC-2998 colon = tested on: HCC-2998 colon
T-47D breast = tested on: T-47D breast
CCRF-CEM leukemia = tested on: CCRF-CEM leukemia
OVCAR-5 ovarian = tested on: OVCAR-5 ovarian
MOLT-4 leukemia = tested on: MOLT-4 leukemia
EKVX NSCLC = tested on: EKVX NSCLC
SW-620 colon = tested on: SW-620 colon
HOP-62 NSCLC = tested on: HOP-62 NSCLC
MDA-MB-435 = tested on: MDA-MB-435
HS 578T breast = tested on: HS 578T breast
KM12 colon = tested on: KM12 colon
MCF7 breast = tested on: MCF7 breast
OVCAR-4 ovarian = tested on: OVCAR-4 ovarian
K-562 leukemia = tested on: K-562 leukemia
RXF 393 renal = tested on: RXF 393 renal
SK-MEL-5 melanoma = tested on: SK-MEL-5 melanoma
SR leukemia = tested on: SR leukemia
HCT-15 colon = tested on: HCT-15 colon
SNB-75 CNS = tested on: SNB-75 CNS
ACHN renal = tested on: ACHN renal
NCI-H226 lung = tested on: NCI-H226 lung
SK-OV-3 ovarian = tested on: SK-OV-3 ovarian
M14 melanoma = tested on: M14 melanoma
SK-MEL-2 melanoma = tested on: SK-MEL-2 melanoma
CAKI-1 renal = tested on: CAKI-1 renal
HOP-92 NSCLC = tested on: HOP-92 NSCLC
NCI-H460 lung = tested on: NCI-H460 lung
NCI-H23 lung = tested on: NCI-H23 lung
MALME-3M melanoma = tested on: MALME-3M melanoma
SN12C renal = tested on: SN12C renal
SF-268 CNS = tested on: SF-268 CNS
MDA-N = tested on: MDA-N
IGROV1 ovarian = tested on: IGROV1 ovarian
U251 CNS = tested on: U251 CNS
SNB-19 CNS = tested on: SNB-19 CNS
OVCAR-3 ovarian = tested on: OVCAR-3 ovarian
HT29 colon = tested on: HT29 colon
MDA-MB-231 breast = tested on: MDA-MB-231 breast
786-0 renal = tested on: 786-0 renal
A498 renal = tested on: A498 renal
SF-295 CNS = tested on: SF-295 CNS
BT-549 breast = tested on: BT-549 breast
HL-60(TB) leukemia = tested on: HL-60(TB) leukemia

COc1cc([C@@H]2c3cc4c(cc3[C@@H](Nc3ccc(N=Cc5ccc(C(=O)O[C@@H](C(=O)O[C@H]6C[C@@]7(O)[C@@H](OC(=O)c8ccccc8)[C@@H]8[C@]9(OC(C)=O)CO[C@@H]9C[C@H](O)[C@@]8(C)C(=O)[C@H](OC(C)=O)C(=C6C)C7(C)C)[C@@H](NC(=O)c6ccccc6)c6ccccc6)cc5)cc3)[C@H]3COC(=O)[C@H]23)OCO4)cc(OC)c1O
TGI (TK-10 renal): > 50 µM
TGI (PC-3 prostate): > 50 µM
TGI (SF-539 CNS): > 47.3 µM
TGI (DU-145 prostate): 17.2 µM
TGI (RPMI-8226 leukemia): 28.2 µM
TGI (OVCAR-8 ovarian): > 50 µM
TGI (NCI-H522 lung): > 50 µM
TGI (A549 NSCLC): > 50 µM
TGI (UACC-257 melanoma): > 50 µM
TGI (UACC-62 melanoma): > 50 µM
TGI (HCT-116 colon): > 50 µM
TGI (COLO 205 colon): > 50 µM
TGI (LOX IMVI melanoma): > 50 µM
TGI (SK-MEL-28 melanoma): > 50 µM
TGI (NCI/ADR-RES ovarian): > 50 µM
TGI (HCC-2998 colon): > 50 µM
TGI (T-47D breast): > 50 µM
TGI (CCRF-CEM leukemia): 11 µM
TGI (OVCAR-5 ovarian): > 39.1 µM
TGI (MOLT-4 leukemia): 10.5 µM
TGI (EKVX NSCLC): > 50 µM
TGI (SW-620 colon): > 50 µM
TGI (HOP-62 NSCLC): > 40.2 µM
TGI (MDA-MB-435): > 50 µM
TGI (HS 578T breast): > 50 µM
TGI (KM12 colon): > 50 µM
TGI (MCF7 breast): > 50 µM
TGI (OVCAR-4 ovarian): > 50 µM
TGI (K-562 leukemia): > 22.5 µM
TGI (RXF 393 renal): > 50 µM
TGI (SK-MEL-5 melanoma): > 42.9 µM
TGI (SR leukemia): 0.35 µM
TGI (HCT-15 colon): > 50 µM
TGI (SNB-75 CNS): 37.2 µM
TGI (ACHN renal): 10.5 µM
TGI (NCI-H226 lung): 29.3 µM
TGI (SK-OV-3 ovarian): > 35.8 µM
TGI (M14 melanoma): > 50 µM
TGI (SK-MEL-2 melanoma): > 50 µM
TGI (CAKI-1 renal): 14.4 µM
TGI (HOP-92 NSCLC): > 50 µM
TGI (NCI-H460 lung): 15.9 µM
TGI (NCI-H23 lung): > 38.9 µM
TGI (MALME-3M melanoma): > 50 µM
TGI (SN12C renal): 17.2 µM
TGI (SF-268 CNS): > 45.6 µM
TGI (MDA-N): > 50 µM
TGI (IGROV1 ovarian): > 50 µM
TGI (U251 CNS): 35.4 µM
TGI (SNB-19 CNS): > 50 µM
TGI (OVCAR-3 ovarian): > 50 µM
TGI (HT29 colon): > 50 µM
TGI (MDA-MB-231 breast): > 50 µM
TGI (786-0 renal): 9.53 µM
TGI (A498 renal): 4.48 µM
TGI (SF-295 CNS): > 27.7 µM
TGI (BT-549 breast): > 50 µM
TGI (HL-60(TB) leukemia): 9.73 µM
